Measured values from patent US7772001B2, “Directed differentiation of embryonic stem cells into an endoderm cell” (Yissum Research Development Company Of the Hebrew …, priority 2000, dated 2010).

Tests used:
Type in all cases: cell-based
[1] = test system: human EBs (from human ES cells); test: In situ hybridization to NF-L RNA in cells derived from dissociated EBs; conditions: for proportion of neuronal cells in the cultures (NF-L RNA): controls 21%
Method: (§1) In Situ Hybridization and Immunohistochemistry: EBs or their plated derivatives were fixed in 4% paraformaldehyde. In in-situ experiments, hybridization to a 50-mer 2′-O-methyl 5′-biotinylated cDNA of NF-L (SEQ ID NO:1) (CCTGCGTGCGGATGGAC […]) followed. The probes were then detected with streptavidin-conjugated alkaline phosphatase using a fluorogenic substrate (Grifman et al, 1998). For immunohistochemistry, EBs were either embedded in paraffin and sectioned at 10 μM, or stained directly on the plates. Mouse monoclonal anti-NF-II was used as a primary antibody, and was detected with Cy3-conjugated goat anti-mouse igG.
(§2) Cell Culture. Human ES cells were grown and EBs were generated as described in Example 1. Four days following initiation of aggregation growth factors were administered: retinoic acid (Sigma): 10-^7 M (Bain et al, 1995) or 10^−6 (Bain et al, 1996); TGFβ1 (Sigma): 2 ng/ml (Slager et al, 1993); βNGF (New Biotechnology, Israel): 100 ng/ml (Wobus et al, 1988). After 21 days, EBs were plated on 5 μm/cm^2 collagen treated plates, either as whole EB's, or as single cells dissociated with trypsin/EDTA. The cultures were maintained for an additional week or 2 days, respectively.
In situ hybridization and immunohistochemistry was carried out according to Example 1. RT-PCR analysis. cDNA was synthesized from total RNA and PCR performed according to Example I. Primers for GAPDH, serotonin receptors 2A and 5A (5HT2A7 5HT5A, respectively) and dopamine receptor D1 (DRD1) were purchased from Clontech. The primers for dopa decarboxylase (DDC) were: […] (SEQ ID NO:2) and […] (SEQ ID NO:3).
Differentiation was initially assayed by in-situ hybridization to neurofilament light chain (NF-L) RNA, which is expressed by both immature and fully differentiated neurons (Carden et al, 1987).

human EBs = test: NF-H immunostaining of plated EBs, neuronal network complexity; conditions: RA treatment and plating on collagen; untreated EBs 54%
Method: as §1, §2
In situ hybridization and immunohistochemistry was carried out according to Example 1. […]

[2] = test system: human differentiated embryonic (DE) cells; test: RT-PCR of cell specific genes in DE cells treated with growth factors; conditions: for blood formation / differentiation into ectodermal cells / differentiation into kidney cells / differentiation into mesodermal cells / differentiation into skin cells / differentiation of brain cells (neurons) / differentiation of heart cells / differentiation of muscle / differentiation into chondrocytes / differentiation into endodermal cells / differentiation toward liver (hepatocytes) / differentiation toward pancreas (islet cells) / differentiation into Mullerian duct cells: vs control without growth factor (FIG. 4); for expression of uro-genital marker WT-1 / set of cell specific transcripts produced: DE cells, 10 days with factor; for overall induction or repression of cell specific expression (FIG. 3B): at least three experiments
Method: (§3) Cell Culture: Human embryonic stem cells were grown on a feeder layer of mouse embryonic fibroblasts (MEF) and then transferred to gelatin coated plates and cultured further to reduce the number of murine cells in the culture. Differentiation into embryoid bodies (EBs) was initiated by transfer to Petri dishes, where the embryoid bodies remained in suspension. After 5 days, the EBs become dissociated and cells are cultured as a monolayer forming differentiated embryonic (DE) cells. This protocol allows for initial differentiation of the human embryonic stem cells as aggregates and further differentiation as a monolayer wherein cells can be exposed to exogenous growth factors. The DE cells were cultured for 10 days in the presence of 8 different growth factors: NGF, bFGF, Activin-A, TGFβ1, HGF, EGF, BMP4 and retinoic acid (RA) (FIG. 1A).
To induce formation of EBs, ES cells were transferred using trypsin/EDTA (0.1%/l mM) to plastic Petri dishes to allow their aggregation and prevent adherence to the plate. Human EBs were grown in the same culture medium, except that it lacked leukemia inhibitory factor (LIF) and bFGF. The EBs were cultured for 5 days and then dissociated and plated on tissue culture plates coated with 50 μg/ml Fibronectin (Boehringer Mannheim). The cells were grown in the presence of the following human recombinant growth factors used singly or in groups: Basic Fibroblast Growth Factor (bFGF) (Swoboda et al, 1999)—10 ng/ml (Gibco BRL); Transforming Growth Factor Beta 1 (TGFβ1) (Swoboda et al, 1999)—2 ng/ml (R&D Systems); Activin-A (Slager et al, 1993)—20 ng/ml (R&D Systems); Bone Morphogenic Protein 4 (BMP-4) (Slager et al, 1993; Bain et al, 1996)—10 ng/ml (R&D Systems); Hepatocyte Growth Factor (HGF)/Scatter Factor (Doetsch et al, 1999)—20 ng/ml (R&D Systems); Epidermal Growth Factor (EGF) (Doetsch et al, 1999)—100 ng/ml (R&D Systems); βNerve Growth Factor (NGF) (Johansson et al, 1999)—100 ng/ml (R&D Systems); Retinoic acid (RA) (Deacon et al, 1998; Peschanski et al, 1995)—1 μM (Sigma). Under these conditions the differentiated embryonic (DE) cells were grown for another 10 days. All of the examined growth factors are absent from the KnockOut™ serum replacement in which the embryonic cells were cultured.
RT-PCR Analysis: Total RNA was extracted using Atlas™ Pure Total RNA Kit (Clontech). cDNA was synthesized from 1 μg total RNA, using Atlas™ RT-for-PCR Kit (Clontech). cDNA samples were subjected to PCR amplification with DNA primers selective for the human genes. For each gene, the DNA primers were derived from different exons to ensure that the PCR product represents the specific mRNA species and not genomic DNA. PCR was performed using the Clontech Advantaq+™ RT-PCR kit and using a two-step cycle at 68° C.
Primers were synthesized for the following genes: neurofilament heavy chain (NF-H), phosphoprotein enriched in astrocytes (PEA-15), Keratin, Dopamine β Hydroxylase (DβH), Follicular Stimulating Hormone (FSH), Enolase, Myosin light polypeptide2 (myosin), Cartilage Matrix Protein (CMP), Renin, Kallikrein, Wilms Tumor 1 (WTI), β-Globin (β-Glob), δ-Globin (δ-Glob), Cardiac Actin (cACT), Albumin, α1 anti-trypsin (α1 AT), Lipase, Amylase, PDX-1, Insulin, Glucagon, Surfactant, Parathyroid Hormone (PTH), α-feto protein (αFP), Retinoic Acid Receptor type alpha (RAR), Hepatocyte Growth Factor Receptor (c-Met), Nerve Growth Factor Receptor (NGFR), Fibroblast Growth Factor Receptor type I (FGFRI), Transforming Growth Factor Receptor type II (TGFRII), Epidermal Growth Factor Receptor type (EGFR), Activin Receptor type IIB (ACTRIIB), Bone Morphogenic Protein 4 Receptor type II (BMP4RII), Octamer Binding Protein 4 (Oct 4), Glyceraldehyde 3-phosphate dehydrogenase (G3PD), β-Actin. Also incorporated by reference, see http://www.ls.huji.ac.il/˜nissimb/factors_es/primers.html-ente.
The differentiation induced by growth factors was further examined by determining the expression of a panel of 24 cell specific genes using RT-PCR. […]

[3] = test system: human differentiated embryonic (DE) cells; test: Morphology of DE cells cultured with growth factors; conditions: several days on plastic, continuous exposure to growth factor (FIG. 1B)
Method: as §3
To induce formation of EBs, ES cells were transferred using trypsin/EDTA (0.1%/l mM) to plastic Petri dishes to allow their aggregation and prevent adherence to the plate. Human EBs were grown in the same culture medium, except that it lacked leukemia inhibitory factor (LIF) and bFGF. The EBs were cultured for 5 days and then dissociated and plated on tissue culture plates coated with 50 μg/ml Fibronectin (Boehringer Mannheim). […]

`CC1=C(/C=C/C(C)=C/C=C/C(C)=C/C(=O)O)C(C)(C)CCC1` [RA, retinoic acid, reference compound] was tested, and the “proportion of neuronal cells in the cultures (NF-L RNA)” value ([1]; high concentration of RA (10^−6 M)) was 52% and the “number of EBs containing NF-H positive neurons” value (human EBs) was 76%.

In the case of “EGF: human recombinant Epidermal Growth Factor, 100 ng/ml (NSDSECPLSHDGYCLHDGVCMYIEALDKYACNCVVGYIGERCQYRDLKWWELR; UniProt P01133 971-1023, looked up)”, the blood formation [2] is reported as “inhibits”, the “differentiation into ectodermal cells” value [2] is reported as “allow or induce” and the “differentiation into kidney cells” value [2] is reported as “inhibits”. The “differentiation into mesodermal cells” value [2] was “allow or induce”, the “differentiation into skin cells” value [2] was “stimulate” and the “differentiation of brain cells (neurons)” value [2] was “inhibits”. For the same compound, the “differentiation of heart cells” value [2] was “stimulate” and the differentiation of muscle [2] was “permits normal levels”.

“HGF: human recombinant Hepatocyte Growth Factor/Scatter Factor, 20 ng/ml” was tested, and the “expression of uro-genital marker WT-1” value [2] was “expressed”, the blood formation [2] was “significant inhibition” and the differentiation into chondrocytes [2] was “significant inhibition”. For the same compound, the “differentiation into ectodermal cells” value [2] was “allows”, the “differentiation into endodermal cells” value [2] was “allows” and the “differentiation into kidney cells” value [2] was “completely inhibited”. The “differentiation into mesodermal cells” value [2] was “allows”, the “differentiation into skin cells” value [2] was “induced at their normal level” and the “differentiation of brain cells (neurons)” value [2] was “significant inhibition”. For the same compound, the “differentiation toward liver (hepatocytes)” value [2] was “significant inhibition”, the “differentiation toward pancreas (islet cells)” value [2] was “significant inhibition” and the “cell morphology found in treated culture” value [3] was “large populations of small cells with pronounced nuclei”.

“NGF: human recombinant β nerve growth factor, 100 ng/ml” was tested, and the “number of neuronal cells that develop from human embryonic cells” value ([1]; summary statement) was “enhance”, the “proportion of neuronal cells in the cultures (NF-L RNA)” value ([1]; βNGF 100 ng/ml) was 39% and the “expression of adrenal markers” value [2] was “not”. For the same compound, the “expression of endodermal markers” value [2] was “induce”, the “expression of uro-genital marker WT-1” value [2] was “expressed” and the “set of cell specific transcripts produced” value [2] was “induce expression of a variety of transcripts indicative of cells from all three germ layers”. For the same compound, the “overall induction or repression of cell specific expression (FIG. 3B)” value [2] was “induces the greatest variety of cell specific gene expression”, the blood formation [2] was “stimulate” and the “differentiation into Mullerian duct cells” value [2] was “direct the differentiation”. The differentiation into chondrocytes [2] was “down-regulate”, the “differentiation into ectodermal cells” value [2] was “allows” and the “differentiation into endodermal cells” value [2] was “allows”. The “differentiation into kidney cells” value [2] was “direct the differentiation”, the “differentiation into mesodermal cells” value [2] was “allows” and the “differentiation into skin cells” value [2] was “completely inhibited”. The “differentiation of brain cells (neurons)” value [2] was “direct the differentiation”, the “differentiation of heart cells” value [2] was “stimulate” and the differentiation of muscle [2] was “down-regulate”. For the same compound, the “differentiation toward liver (hepatocytes)” value [2] was “direct the differentiation” and the “differentiation toward pancreas (islet cells)” value [2] was “direct the differentiation”.

For “TGFβ1: human recombinant Transforming Growth Factor Beta 1, 2 ng/ml”, the “effect on neuronal differentiation (NF-L RNA)” value ([1]; TGFβ1 2 ng/ml) was “no effect”, the “set of cell specific transcripts produced” value [2] was “relatively reduced set of specific transcripts” and the “overall induction or repression of cell specific expression (FIG. 3B)” value [2] was “mostly repress or fail to direct differentiation of as many cell types”. The blood formation [2] was “inhibit”, the “differentiation into Mullerian duct cells” value [2] was “inhibit” and the differentiation into chondrocytes [2] was “inhibit”. For the same compound, the “differentiation into ectodermal cells” value [2] was “inhibit”, the “differentiation into endodermal cells” value [2] was “inhibit” and the “differentiation into kidney cells” value [2] was “inhibit”. The “differentiation into mesodermal cells” value [2] was “allow differentiation into selected mesodermal cells”.

For “bFGF: human recombinant Basic Fibroblast Growth Factor, 10 ng/ml”, the “differentiation into ectodermal cells” value [2] was “allow or induce”, the “differentiation into kidney cells” value [2] was “inhibits” and the “differentiation into mesodermal cells” value [2] was “allow or induce”. For the same compound, the “differentiation into skin cells” value [2] was “permits formation of normal levels”, the “differentiation of brain cells (neurons)” value [2] was “permits formation of normal levels” and the “differentiation of heart cells” value [2] was “stimulates”. For the same compound, the differentiation of muscle [2] was “permits formation of normal levels” and the “cell morphology found in treated culture” value [3] was “fibroblast like cells”.
